Results from the supplement of paper PMC10949913.

What was measured:
Test in all cases: area under concentration-response curve (viability) (AUC (a.u.)); higher = less active
Conditions in all cases: 48 h
NCI-H295R = test system: NCI-H295R
Outline: (§1)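 Three adrenocortical carcinoma cell lines were plated in 1,536-well plates at 500–1,000 cells/well in 5 µL medium, and 23 nL of each library compound was added at 11 concentrations. After 48 h, CellTiter-Glo was applied for 15 minutes at room temperature before luminescence was read. Each plate's signals were normalised to vehicle and empty-well controls. AC50 and area under the curve were taken from fitted concentration-response curves, with only inhibitory or non-responding curve classes retained.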

CU-ACC1 = test system: CU-ACC1
Outline: as §1

CU-ACC2 = test system: CU-ACC2
Outline: as §1

SMILES	area under concentration-response curve (NCI-H295R)	area under concentration-response curve (CU-ACC1)	area under concentration-response curve (CU-ACC2)
CCCCCN(CCC12CC3CC(CC(C3)C1)C2)C(=O)NCCCc1ccncc1	453	472	519
CCC1=C(C)CN(C(=O)NCCc2ccc(S(=O)(=O)NC(=O)N[C@H]3CC[C@H](C)CC3)cc2)C1=O	559	508	600
Cc1c(F)cccc1NC(=O)Nc1ccc(Cl)c([S+](=O)([O-])[C@H]2CCCNC2)c1O	552	540	545
CNC(=O)[C@H](Cc1c[nH]c2ccccc12)NC(=O)[C@@H](CC(=O)NO)CC(C)C	460	473	492
C[C@](N)(Cc1ccc(O)c(O)c1)C(=O)O	524	475	477
COC/1=C/C=C2\C(=C/C1=O)[C@H](CCC3=CC(=C(OC)C(=C23)OC)OC)NC(C)=O	480	536	548
O=P(O)(O)C(O)(Cc1cccnc1)P(=O)(O)[O][Na] (stereo not drawn)	533	508	573
O=c1oc2cc(O)ccc2s1	503	502	482
C\C1=C(\C=C(\C#N)C(=O)N1)C2=CC=NC=C2	543	532	515
CCN(CC)CCOc1ccc(Cc2ccccc2)cc1	503	454	526
NC/1=N/C(=O)N(/C=N1)[C@@H]2O[C@H](CO)[C@@H](O)[C@H]2O	504	469	522
CC(=O)O[C@H]1C[C@@H]2CC[C@@H]3[C@H](CC[C@@]4(C)[C@H]3C[C@H]([N+]3(C)CCCCC3)[C@@H]4OC(C)=O)[C@@]2(C)C[C@@H]1N1CCCCC1.[Br-]	610	562	632
CC/1=C2/N(C(=O)C(=C1)/NC3=CC(=NC=N3)N)C4(CCCCC4)NC2=O	537	594	641
Oc1ccc(OCc2ccccc2)cc1	417	378	353
CC1=C(F)C=CC(=C1)N2C(=O)\C=C/C3=C2C4=C([NH]C=C4)N=C3	527	519	509
CC(=O)OCC(=O)[C@@]12\N=C(C)/O[C@@H]1C[C@H]3[C@@H]4CCC/5=C/C(=O)/C=C\[C@]5(C)[C@H]4[C@@H](O)C[C@]23C	514	483	581

SMILES	area under concentration-response curve (NCI-H295R)	area under concentration-response curve (CU-ACC1)	area under concentration-response curve (CU-ACC2)
O=[N+]([O-])c1ccc(-c2nc(-c3ccc(F)cc3)c(-c3ccncc3)[nH]2)cc1	489	498	567
O=C(O)c1cccnc1	548	579	604
Nc1ncnc2ccccc12	566	534	633
O=C(NCc1cccc(O)c1)Nc1nc(-c2ccncc2)cs1	559	546	582
Cc1cccc(C)c1NC(=O)CN1CCCC1=O	520	486	544
CN1CC(=O)\N=C1\NC(=O)NC2=CC(=CC=C2)Cl	486	497	566
COCCNCCCn1c(C(=O)CF)c(-c2ccc(C)cc2)c2c(N)ncnc21	581	537	655
CC(C)C[C@@H](C(=O)N[C@H](C(=O)OC1CCCC1)c1ccccc1)[C@H](O)C(=O)NO	539	463	551
CO[C@H](C1COC1)C2=C(Cl)C3=C(CCN(C\C4=C(OC)\C=C(\C)NC4=O)C3=O)C(=C2)Cl	536	496	579
C#CCN[C@@H]1CCc2ccccc21	590	565	642
CCCc1nc(C(C)(C)O)c(C(=O)O)n1Cc1ccc(-c2ccccc2-c2nn[nH]n2)cc1	462	436	521
COC(=O)/C=C/C(=O)OC	550	525	608
COC(=O)Nc1nc2cc(C(=O)c3ccc(F)cc3)ccc2[nH]1	462	570	574
OC[C@H]1O[C@H](C[C@@H]1O)N2/C=C(C(=O)NC2=O)/C(F)(F)F	583	538	650
C=C(C)[C@@H]1CC[C@]2(C(=O)O)CC[C@]3(C)[C@H](CC[C@@H]4[C@@]5(C)CC[C@H](O)C(C)(C)[C@@H]5CC[C@]43C)[C@@H]12	587	541	646
